Molecules are shown by their SMILES. pEC50: −log10 of the molar value. Bounds are passed on as bounds.

Usually pEC50 stands for the negative decadic logarithm of the EC50, by convention in mol/L.

The subject of the test is HBV. The test can be described thus: HBV-DNA Antiviral Assay Using HepG2.117 Cells (intracellular HBV DNA by qPCR). To be noted: Hepatitis B virus, HepG2.117. In kind it is cell-based, hepatitis B virus (genotype D). As to the method: The following assay procedure describes the HBV antiviral assay, using HepG2.117 cells, which carry a stably integrated genotype D HBV genome under the control of a Tet-off promoter, and intracellular HBV DNA quantification as endpoint. Cell viability is assessed in parallel by measuring the intracellular ATP content using ATPlite (Perkin Elmer).
On day 0, HepG2.117 cells (which are maintained in routine cell culture with doxycycline present in the medium at a final concentration of 1 μg/mL) were seeded in 96-well plates (white with clear bottom) at a density of 2.0×10^4 cells/well (0.1 mL/well) in medium without doxycycline to induce pgRNA transcription and subsequent formation of HBV particles. The cells were incubated at 37° C. and 5% CO2.
On day 1, medium was removed from each well, the test articles were diluted in culture medium without doxcycyline and 100 μL was added to cell culture wells (9 concentrations, 4-fold dilution). For each plate, 6 untreated (merely DMSO) wells were included. The final concentration of DMSO in the culture medium was 2%. Each plate was prepared in duplicate (one for HBV DNA extraction, one for ATPlite measurement). The cells were incubated at 37° C. and 5% CO2 for 3 days.
On day 4, cell viability was assessed using ATPlite and cell lysates were prepared for HBV DNA extraction and subsequent quantification by qPCR.
Medium was removed from each well and 100 μL of 0.33% NP-40 in H2O was added to each well. Plates were sealed, incubated at 4° C. for 5 mins, vortexed extensively and centrifuged briefly. Next, 35 μL of lysate was added to 65 μL QuickExtract DNA Extraction Solution (Epicentre) in a PCR plate for each well. PCR plate was incubated at 65° C. for 6 mins, 98° C. for 2 mins and finally cooled to 4° C. HBV DNA was then quantified by qPCR with HBV-specific primers and probes as specified in Table 3 using the Bio-Rad SSOAdvanced Universal Probes Supermix on a CFX96 machine (Bio-Rad). The PCR cycle program consisted of 95° C. for 3 mins, followed by 40 cycles at 95° C. for 10 sec and 60° C. for 30 sec.
A DNA standard was prepared by dilution of an IDT gBlock corresponding to the amplicon with concentrations ranging from 10^2 to 10^8 copies/input (i.e. per 4 μL) and used to generate a standard curve by plotting Cq values vs. HBV DNA standard concentration. The quantity of HBV DNA in each sample was determined by interpolating from the standard curve.
Cell viability was calculated as follows: % Cell viability=(luminescence value of test sample)/(average luminescence value of 2% DMSO control)×100%. HBV DNA inhibition was calculated as follows: 100−(HBV DNA copy number of test sample)/(average HBV DNA copy number of 2% DMSO control)×100%. No normalization to entecavir was required due to the excellent dynamic window of this assay. The CC50, EC50 and EC90 values were determined by dose-response curves fitted by GraphPad Prism using “log (agonist) vs. response—Variable slope”.
A general note: Real-time PCR tracks product formation cycle by cycle.
Compound `COc1ccc(-n2c(C(=O)N[C@@H](c3ccccc3)C(C)C)c3n(c2=O)CCN(C(=O)c2ccc(Br)c(Cl)c2)C3)cc1` (racemic) [Example 178, 7-(4-bromo-3-chloro-benzoyl)-2-(4-methoxyphenyl)-3-oxo-N-[rac-(1R)-2-methyl-1-phenyl-propyl]-6,8-dihydro-5H-imidazo[1,5-a]pyrazine-1-carboxamide] had a pEC50 of 5.30 to 6.30.
The value for `CC(NC(=O)c1c2n(c(=O)n1-c1ccc(OC3CC3)cc1)CCN(C(=O)c1ccc(Br)c(Cl)c1)C2)c1ccccc1` (racemic) [Example 179, 7-(4-bromo-3-chloro-benzoyl)-2-[4-(cyclopropoxy)phenyl]-3-oxo-N-[rac-(1R)-1-phenylethyl]-6,8-dihydro-5H-imidazo[1,5-a]pyrazine-1-carboxamide] was 6.30 to 7.00; that for `C[C@@H](NC(=O)c1[nH]c(=O)n2c1CN(C(=O)c1ccc(Br)c(Cl)c1)CC2)c1ccccc1` (racemic) [Example 188, 7-(4-bromo-3-chloro-benzoyl)-3-oxo-N-[rac-(1R)-1-phenylethyl]-2,5,6,8-tetrahydroimidazo[1,5-a]pyrazine-1-carboxamide] was 5.30 to 6.30.
As for `COc1ccc(-n2c(C(=O)NCc3ccccc3)c3n(c2=O)CC(C)N(C(=O)c2ccc(Br)c(Cl)c2)C3)cc1` (racemic) [Example 198, rac-(6R)-N-benzyl-7-(4-bromo-3-chloro-benzoyl)-2-(4-methoxyphenyl)-6-methyl-3-oxo-6,8-dihydro-5H-imidazo[1,5-a]pyrazine-1-carboxamide], the figure is 5.30 to 6.30.
The value for `COc1ccc(-n2c(C(=O)NCc3ccccc3)c3n(c2=O)C[C@H](C)N(C(=O)c2ccc(Br)c(Cl)c2)C3)cc1` (racemic) [Example 199, rac-(6S)-N-benzyl-7-(4-bromo-3-chloro-benzoyl)-2-(4-methoxyphenyl)-6-methyl-3-oxo-6,8-dihydro-5H-imidazo[1,5-a]pyrazine-1-carboxamide] was 6.30 to 7.00; that for `COc1ccc(-n2c(C(=O)NC(C(N)=O)c3ccccc3)c3n(c2=O)CCN(C(=O)c2ccc(Br)c(Cl)c2)C3)cc1` (racemic) [Example 206, 7-(4-bromo-3-chloro-benzoyl)-2-(4-methoxyphenyl)-3-oxo-N-[rac-(1R)-2-amino-2-oxo-1-phenyl-ethyl]-6,8-dihydro-5H-imidazo[1,5-a]pyrazine-1-carboxamide] was under 5.30; that for `COc1ccc(-n2c(C(=O)N[C@H](C(N)=O)c3ccccc3)c3n(c2=O)CCN(C(=O)c2ccc(Br)c(Cl)c2)C3)cc1` (racemic) [Example 207, 7-(4-bromo-3-chloro-benzoyl)-2-(4-methoxyphenyl)-3-oxo-N-[rac-(1S)-2-amino-2-oxo-1-phenyl-ethyl]-6,8-dihydro-5H-imidazo[1,5-a]pyrazine-1-carboxamide] was under 5.30.
On to `CC(C)Oc1ccc(-n2c(C(=O)NCc3ccccc3)c3n(c2=O)CCN([C@H](c2ccc(Br)c(Cl)c2)C(F)(F)F)C3)cc1` (racemic) [Example 240, N-benzyl-2-(4-isopropoxyphenyl)-3-oxo-7-[rac-(1R)-1-(4-bromo-3-chloro-phenyl)-2,2,2-trifluoro-ethyl]-6,8-dihydro-5H-imidazo[1,5-a]pyrazine-1-carboxamide], for which the pEC50 is under 5.30.
The value for `CC(C)Oc1ccc(-n2c(C(=O)NCc3ccccc3)c3n(c2=O)CCN(C(c2ccc(Br)c(Cl)c2)C(F)(F)F)C3)cc1` (racemic) [Example 241, N-benzyl-2-(4-isopropoxyphenyl)-3-oxo-7-[rac-(1S)-1-(4-bromo-3-chloro-phenyl)-2,2,2-trifluoro-ethyl]-6,8-dihydro-5H-imidazo[1,5-a]pyrazine-1-carboxamide] was under 5.30.
As for `COC1CCC(n2c(C(=O)N[C@@H](C)c3ccccc3)c3n(c2=O)CCN(C(=O)c2ccc(Br)c(Cl)c2)C3)CC1` (mixture of isomers) [Example 247, 7-(4-bromo-3-chloro-benzoyl)-2-(4-methoxycyclohexyl)-3-oxo-N-[rac-(1S)-1-phenylethyl]-6,8-dihydro-5H-imidazo[1,5-a]pyrazine-1-carboxamide], the figure is under 5.30; as for `COC1CCC(n2c(C(=O)N[C@H](C)c3ccccc3)c3n(c2=O)CCN(C(=O)c2ccc(Br)c(Cl)c2)C3)CC1` (mixture of isomers) [Example 254, 7-(4-bromo-3-chloro-benzoyl)-2-(4-methoxycyclohexyl)-3-oxo-N-[rac-(1R)-1-phenylethyl]-6,8-dihydro-5H-imidazo[1,5-a]pyrazine-1-carboxamide], under 5.30; as for `COc1ccc(-n2c(C(=O)NCc3ccccc3)c3n(c2=O)C[C@H](C2CC2)N(C(=O)c2ccc(Br)c(Cl)c2)C3)cc1` (racemic) [Example 279, rac-(6S)-N-benzyl-7-(4-bromo-3-chloro-benzoyl)-6-cyclopropyl-2-(4-methoxyphenyl)-3-oxo-6,8-dihydro-5H-imidazo[1,5-a]pyrazine-1-carboxamide], 6.30 to 7.00.
The value for `COc1ccc(-n2c(C(=O)NCc3ccccc3)c3n(c2=O)CC(C2CC2)N(C(=O)c2ccc(Br)c(Cl)c2)C3)cc1` (racemic) [Example 280, rac-(6R)-N-benzyl-7-(4-bromo-3-chloro-benzoyl)-6-cyclopropyl-2-(4-methoxyphenyl)-3-oxo-6,8-dihydro-5H-imidazo[1,5-a]pyrazine-1-carboxamide] was 6.30 to 7.00; that for `C[C@@H](NC(=O)c1c2n(c(=O)n1-c1ccc(OCC(F)(F)F)cc1)CCN(C(=O)c1ccc(Br)c(Cl)c1)C2)c1ccc(OC(F)(F)F)cc1F` (racemic) [Example 292, 7-(4-bromo-3-chloro-benzoyl)-3-oxo-N-[rac-(1R)-1-[2-fluoro-4-(trifluoromethoxy)phenyl]ethyl]-2-[4-(2,2,2-trifluoroethoxy)phenyl]-6,8-dihydro-5H-imidazo[1,5-a]pyrazine-1-carboxamide] was 5.30 to 6.30.
As for `CC(NC(=O)c1c2n(c(=O)n1-c1ccc(OCC(F)(F)F)cc1)CCN(C(=O)c1ccc(Br)c(Cl)c1)C2)c1ccc(OC(F)(F)F)cc1F` (racemic) [Example 293, 7-(4-bromo-3-chloro-benzoyl)-3-oxo-N-[rac-(1S)-1-[2-fluoro-4-(trifluoromethoxy)phenyl]ethyl]-2-[4-(2,2,2-trifluoroethoxy)phenyl]-6,8-dihydro-5H-imidazo[1,5-a]pyrazine-1-carboxamide], the negative-log EC50 (pEC50) is 5.30 to 6.30.
The value for `C[C@H](NC(=O)c1c2n(c(=O)n1-c1ccc(OCC(F)(F)F)cc1)CCN(C(=O)c1ccc(Br)c(Cl)c1)C2)c1ccc(C#N)cc1F` (racemic) [Example 299, 7-(4-bromo-3-chloro-benzoyl)-3-oxo-N-[rac-(1R)-1-(4-cyano-2-fluoro-phenyl)ethyl]-2-[4-(2,2,2-trifluoroethoxy)phenyl]-6,8-dihydro-5H-imidazo[1,5-a]pyrazine-1-carboxamide] was 5.30 to 6.30.
As for `CC1Cn2c(c(C(=O)NCc3ccccc3)n(-c3ccc(OC4CC4)cc3)c2=O)CN1C(=O)c1ccc(Br)c(Cl)c1` (racemic) [Example 301, rac-(6R)-N-benzyl-7-(4-bromo-3-chloro-benzoyl)-2-[4-(cyclopropoxy)phenyl]-6-methyl-3-oxo-6,8-dihydro-5H-imidazo[1,5-a]pyrazine-1-carboxamide], the figure is 5.30 to 6.30.

Values taken from US11591341B2 (ALIGOS THERAPEUTICS, INC., priority 2019, dated 2023).
